For the assay, the system named is human induced pluripotent stem cell-derived cardiomyocytes (hiPSC-CM). The assay is described as follows: Optical recordings of calcium transients in hiPSC-CM monolayers. Type of assay: cell-based. How it is done: Human induced pluripotent stem cell-derived cardiomyocytes (hiPSC-CM) were purchased from AXOL Bioscience. The hiPSC-CM were thawed and plated following the manufacturer’s protocol. Briefly, cells were plated on Matrigel (Corning) pre-coated glass coverslips cultivated in 96-multiwell plates (Falcon). Matrigel was diluted in sterile DMEM/F12 medium (Gibco) (1:130) and incubated for 2 hr at 37°C before plating the cells. hiPSC-CM were cultured at 37°C and 5% CO2. Cultured hiPSC-CM were fed every other day. […]
CaT fluorescence recordings from cell monolayers were recorded using a Leica DM LFS upright microscope. […] Fluorescence signals were passed through the emission filter, collected by a photodiode, and amplified with an Axopatch 200B patch clamp amplifier (Axon Instruments). Calcium fluorescence signals were low-pass Bessell-filtered (Frequency Devices) at 100 Hz, digitized at 1 kHz, and recorded using Clampex 9.2 and analyzed using Clampfit 9.2. […] Since hiPSC-CM were spontaneously beating and at slightly different frequencies between monolayers, the frequency of the action potentials was calculated as the inverse of the time between CaTs. The action potential duration (APD) was measured in the absence and the presence of DHA-Glycine. The APD90 (or the time required to achieve the 90% of repolarization of the CaT) was measured in all the experiments to test the effects of DHA-glycine. […]

With `CC/C=C\C/C=C\C/C=C\C/C=C\C/C=C\C/C=C\CCC(=O)NCC(=O)O` [DHA-glycine, docosahexaenoyl glycine], the “CaT APD90c” value (30 µM, corrected by modified Fridericia's formula, control 472 ± 27 ms, n = 3) stood at 317 ± 9 ms. The “effect on hiPSC-derived cardiomyocytes at lower doses” value (doses lower than 30 μM) is “did not get significant effects at low doses”.

(Values after paper PMC7159882, “Polyunsaturated fatty acid analogues differentially affect cardiac NaV, CaV, and KV channels through unique mechanisms” (eLife, 2020).)
